# Patent US7902361B2, “Pyrimidin-4-yl-3, 4-thione compounds and their use in therapy” (Cyclacel Limited, priority 2003, dated 2011)
# Like-named read-outs stand apart in the source and are kept apart here.
# Assays:
# [1] = tested on: glycogen synthase; test: Glycogen synthase activation in mouse adipocytes; format: cell-based; settings: for Max FI (% to LiCl): maximum fold induction normalised to 40 mM LiCl
# Method: 3T3-L1 mouse pre-adipocytes were grown in DMEM medium supplemented with 10% foetal calf serum (FCS) and penicillin/streptomycin until fully confluent. Cell differentiation was initiated by the addition of 0.5 mM IBMX (2-isobutyl-1-methylxanthine), 0.25 μM dexamethasone and 1 μg/mL insulin into the growth media. The differentiation medium was replaced after 4 days and 7 days. After the initiation of differentiation the cells were grown for an additional 3 days in DMEM, 10% FCS and antibiotics.
# HEK293 cells, mouse adipocytes or rat myotubes were treated in 10-cm Petri dishes with different concentrations of GSK3 inhibitor example compounds for 90 minutes. At the end of the treatment period the cells were washed and scraped in ice cold PBS buffer supplemented with 20 mM NaF. The cells were pelleted by centrifugation and lysed in 300 μL buffer (50 mM.HEPES pH 7.5, 10 mM EDTA, 100 mM NaF, 5 mM DTT, protease inhibitor cocktail (Sigma)). After incubation for 30 min on ice the samples were cleared by centrifugation. The activity of glycogen synthase was determined in the soluble fraction at two different concentrations of […]—low (0.1 mM) and high (10 mM). The reaction was carried out for 30 min (buffer: 50 mM Tris pH 7.8, 20 mM EDTA, 25 mM NaF, 5 mM DTT). The reaction mixture (total volume of 90 μL) contained 1% glycogen, 0.3 mM UDP-glucose and 0.06 μCi ^14C-UDP-glucose. Reaction was stopped by transfer of 70 μL to a GFC 96-well filter plate, containing 140 μL 100% ethanol and the glycogen was allowed to precipitate for 1 h at 4° C. The wells were washed 2 times with 200 μL 66% ethanol and than allowed to dry. Subsequently, 100 μL of scintillation liquid was added, and plates were sealed and counted in a Packard Topcounter. Glycogen synthase activation was calculated as the ratio between the incorporation of labelled ^14C-UDP-glucose in glycogen at low and high concentration of […] (fractional velocity).
# The ability of GSK3 inhibitors to activate glycogen synthase was determined in HEK293 cells, mouse adipocytes and rat myotubed. The compounds tested activated glycogen synthase in all three cellular systems with EC50 values in the sub-micromolar to low micromolar concentration range. Most of them exceeded the stimulation induced by 40 mM LiCl (the highest compound concentration used in the assay was 20 μM).
# [2] = molecular target: CDK9/cyclin T1 (Homo sapiens, UniProt P50750); test: Kinase assay CDK9/cyclin T1; format: biochemical; settings: Ki calculated (Cheng-Prusoff) from experimentally determined IC50 and Km,ATP; read-out: Kinase Inhibition Ki CDK9 - cyclin T1
# Chain of CDK9/cyclin T1 (P50750 whole entry, species assumed): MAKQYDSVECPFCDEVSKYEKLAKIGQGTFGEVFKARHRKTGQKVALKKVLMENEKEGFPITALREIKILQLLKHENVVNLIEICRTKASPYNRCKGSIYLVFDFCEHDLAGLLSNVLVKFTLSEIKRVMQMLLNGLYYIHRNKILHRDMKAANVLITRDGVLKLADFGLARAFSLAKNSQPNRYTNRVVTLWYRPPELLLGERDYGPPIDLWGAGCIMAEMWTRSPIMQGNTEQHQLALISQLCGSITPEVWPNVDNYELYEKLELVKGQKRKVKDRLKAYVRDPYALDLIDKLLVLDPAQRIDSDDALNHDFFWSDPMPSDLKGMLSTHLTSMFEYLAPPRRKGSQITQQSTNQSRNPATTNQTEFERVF
# Chain of CDK9/cyclin T1 (O60563 whole entry partner, species assumed): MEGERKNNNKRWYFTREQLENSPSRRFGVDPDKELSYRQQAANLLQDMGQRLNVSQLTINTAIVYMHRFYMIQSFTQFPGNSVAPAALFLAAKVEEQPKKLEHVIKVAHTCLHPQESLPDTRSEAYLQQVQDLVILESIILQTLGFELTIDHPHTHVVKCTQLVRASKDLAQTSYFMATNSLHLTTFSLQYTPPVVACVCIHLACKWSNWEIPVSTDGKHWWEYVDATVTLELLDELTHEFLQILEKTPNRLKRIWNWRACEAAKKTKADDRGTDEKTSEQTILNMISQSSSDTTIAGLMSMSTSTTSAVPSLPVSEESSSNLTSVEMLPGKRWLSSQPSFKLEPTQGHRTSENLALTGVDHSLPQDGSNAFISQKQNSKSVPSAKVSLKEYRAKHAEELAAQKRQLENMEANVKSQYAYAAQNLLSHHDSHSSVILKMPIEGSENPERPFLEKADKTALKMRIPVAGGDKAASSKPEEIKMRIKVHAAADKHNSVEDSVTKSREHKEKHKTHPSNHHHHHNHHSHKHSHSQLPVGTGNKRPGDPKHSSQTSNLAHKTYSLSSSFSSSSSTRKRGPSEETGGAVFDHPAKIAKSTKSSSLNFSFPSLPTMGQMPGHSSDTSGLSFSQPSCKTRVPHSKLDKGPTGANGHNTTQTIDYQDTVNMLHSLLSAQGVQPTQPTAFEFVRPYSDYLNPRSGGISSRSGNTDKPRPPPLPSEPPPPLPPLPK
# Summary of the method: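 Radiometric filter assays used recombinant kinases or complexes (2-4 μg) with appropriate polypeptide substrates in pH 7.4 β-glycerophosphate/MOPS buffer. Reactions were started with 15 mM MgCl2 and 100 μM ATP containing [γ-32P]-ATP and run at 30° C. Phosphate incorporated into substrate was counted by scintillation after washing.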
# [3] = molecular target: T1, GSK3β (Homo sapiens, UniProt P49841); test: GSK3β in vitro kinase assay; format: biochemical; settings: recombinant human GSK3β, 100 μM ATP
# T1 construct: purchased New England Biolabs
# T1 sequence (P49841 whole entry): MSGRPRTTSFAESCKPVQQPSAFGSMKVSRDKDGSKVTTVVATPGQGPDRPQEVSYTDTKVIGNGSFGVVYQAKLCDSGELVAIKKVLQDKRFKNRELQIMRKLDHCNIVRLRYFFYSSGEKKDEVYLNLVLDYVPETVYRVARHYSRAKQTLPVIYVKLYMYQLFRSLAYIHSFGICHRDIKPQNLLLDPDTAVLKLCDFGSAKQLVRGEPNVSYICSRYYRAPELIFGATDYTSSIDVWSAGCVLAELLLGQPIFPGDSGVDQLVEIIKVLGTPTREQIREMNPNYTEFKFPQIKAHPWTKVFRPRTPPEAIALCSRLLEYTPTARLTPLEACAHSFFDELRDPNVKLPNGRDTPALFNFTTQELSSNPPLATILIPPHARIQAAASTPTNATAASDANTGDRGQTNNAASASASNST
# Summary of the method: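 Radiometric filter-binding assay with GSK3β (1.5 units), 200 μM CREB phosphopeptide, 100 μM ATP plus [γ-32P]ATP, in 20 mM Tris HCl pH7.5, 5 mM DTT, 15 mM MgCl2, 2% DMSO; 30 min at 30° C, stopped with phosphoric acid. 32P incorporation counted by scintillation; IC50 from 10-point titration.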
# [4] = molecular target: T2, GSK3α (Homo sapiens, UniProt P49840); test: GSK3α in vitro kinase assay; format: biochemical; settings: recombinant human GSK3α, 100 μM ATP
# T2 construct: purchased Upstate
# T2 sequence (P49840 whole entry): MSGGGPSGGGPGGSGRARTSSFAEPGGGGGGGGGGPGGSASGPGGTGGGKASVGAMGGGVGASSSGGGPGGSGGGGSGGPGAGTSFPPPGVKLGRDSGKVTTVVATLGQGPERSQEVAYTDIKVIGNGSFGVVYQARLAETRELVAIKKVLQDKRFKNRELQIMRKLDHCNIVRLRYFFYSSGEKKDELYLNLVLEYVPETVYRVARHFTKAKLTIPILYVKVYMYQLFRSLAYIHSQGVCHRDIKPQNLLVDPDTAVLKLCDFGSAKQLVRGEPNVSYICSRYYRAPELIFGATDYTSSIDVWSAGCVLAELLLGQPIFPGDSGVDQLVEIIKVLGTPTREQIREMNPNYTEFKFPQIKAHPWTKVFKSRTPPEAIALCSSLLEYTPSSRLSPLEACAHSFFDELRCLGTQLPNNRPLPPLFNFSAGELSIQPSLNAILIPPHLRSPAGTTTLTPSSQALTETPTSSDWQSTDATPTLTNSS
# Method: Both isoforms of GSK3 (α and β) are involved in the regulation of glycogen synthase activity—key enzyme in the glycogen metabolism. The inhibitory potency of example compounds was determined using in vitro kinase assays with recombinant human GSK3-α and -β; the IC50 values determined are presented in Table 9.
# A 10-point titration was set up to determine the IC50 values of selected example compounds against GSK3β. Assays were performed using 96-well microtiter plates with a final volume of 25 μL per well. Each assay contained 1.5 units of GSK3β(New England Biolabs), 200 μM CREB phosphopeptide ([…]pSYR, Alta Biosciences), 20 mM Tris HCl pH7.5, 5 mM DTT, 15 mM MgCl2 supplemented with 100 μM ATP and 0.5 μCi of [γ-^32P] ATP plus or minus inhibitor in 2% DMSO. Assays were carried out for 30 minutes at 30° C. before stopping the reaction by the addition of an equal volume of 75 mM aqueous phosphoric acid. Samples were then spotted onto a p81 filterplate (Whatman) and a vacuum was applied. Wells were washed 3 times with 200 μL of dilute aqueous phosphoric acid before the addition of 50 μL Microscint 40 per well. Incorporation of radioactivity was determined on a Topcount microplate scintillation counter (Packard).
# GSK3α (Upstate) was assayed exactly as described above except that 1 ng of enzyme was added per assay point.
Compound,EC50 ([1]; Adipocyte),Ki [2],IC50 [3],IC50 [4],Max FI (% to LiCl) [1],EC50 [1]
"CCNS(=O)(=O)c1cccc(Nc2nccc(-c3sc(=O)n(C)c3C)n2)c1 [Compound 62, 3-[4-(3,4-Dimethyl-2-oxo-2,3-dihydro-thiazol-5-yl)-pyrimidin-2-ylamino]-N-ethyl-benzenesulfonamide]",432 ± 179 nM,4.8 nM,22 nM,27 nM,234 % to LiCl,–
"CNc1cc(Nc2nccc(-c3sc(=O)n(C)c3C)n2)cc(C(F)(F)F)c1 [Compound 76, 3,4-Dimethyl-5-[2-(3-methylamino-5-trifluoromethyl-phenylamino)-pyrimidin-4-yl]-3H-thiazol-2-one]",–,21 nM,18.9 nM,42 nM,196 % to LiCl,1110 ± 530 nM

# The next lines start with results.
EC50 ([1]; Adipocyte),Ki [2],IC50 [3],IC50 [4],Compound,Max FI (% to LiCl) [1],EC50 [1]
148 ± 70 nM,5.7 nM,3 nM,2.4 nM,"CC(=O)Nc1cc(Nc2nccc(-c3sc(=O)n(C)c3C)n2)cc(C(F)(F)F)c1 [Compound 64, N-{3-[4-(3,4-Dimethyl-2-oxo-2,3-dihydro-thiazol-5-yl)-pyrimidin-2-ylamino]-5-trifluoromethyl-phenyl}-acetamide]",143 % to LiCl,–
4830 ± 4600 nM,4.8 nM,23 nM,17.8 nM,"COCCNS(=O)(=O)c1cccc(Nc2nccc(-c3sc(=O)n(C)c3C)n2)c1 [Compound 67, 3-[4-(3,4-Dimethyl-2-oxo-2,3-dihydro-thiazol-5-yl)-pyrimidin-2-ylamino]-N-(2-methoxy-ethyl)-benzenesulfonamide]",177 % to LiCl,–
9550 ± 7400 nM,140 nM,61 nM,136 nM,"Cc1c(-c2ccnc(Nc3cc(Br)cc(C(F)(F)F)c3)n2)sc(=O)n1C [Compound 68, 5-[2-(3-Bromo-5-trifluoromethyl-phenylamino)-pyrimidin-4-yl]-3,4-dimethyl-3H-thiazol-2-one]",50 % to LiCl,–
2190 ± 400 nM,9.5 nM,25 nM,31 nM,"Cc1c(-c2ccnc(Nc3cccc(S(=O)(=O)NCCO)c3)n2)sc(=O)n1C [Compound 75, 3-[4-(3,4-Dimethyl-2-oxo-2,3-dihydro-thiazol-5-yl)-pyrimidin-2-ylamino]-N-(2-hydroxy-ethyl)-benzenesulfonamide]",181 % to LiCl,–
